Laboratory results published in ChEMBL document CHEMBL3885861, “Open TG-GATES”.

Species on record: Rattus norvegicus
Test: Open TG-GATES - Regimen: Daily Repeat
Type: toxicity, organism-based, Sprague-Dawley
Design: regimen Daily Repeat, gender Male, age 6 weeks
Settings: in vivo, po, 3 mg/kg, […], route gavage, dose level Low; for KIDNEY_L / KIDNEY_R / KIDNEY_TOTAL: tissue Kidney; for LIVER: tissue Liver; for ALP / ALT / AST / BUN / CRE / Ca / Cl / DBIL / GLC / IP / K / LDH / Na / PL / RALB / TBIL / TC / TG / TP / gamma-GTP: tissue Plasma

## O=C(CCCN1CCC(O)(c2ccc(Cl)cc2)CC1)c1ccc(F)cc1 [HALOPERIDOL]
Tissue Blood, time 28 day
  MCHC: 33.5%
  Mono: 2.4%
  Neu: 13.2%
  Plat: 99.3 x10_4/uL
  RBC: 782.4 x10_4/ul
  Ret: 2.3%
Time 7 day
  KIDNEY_L: 1 g
  KIDNEY_R: 1.1 g
  KIDNEY_TOTAL: 2.1 g
  LIVER: 12.2 g
  ALP: 845.6 IU/L
  ALT: 33.2 IU/L
  AST: 61.4 IU/L
  BUN: 19.2 mg/dL
  CRE: 0.6 mg/dL
  Ca: 11.6 mg/dL
  Cl: 106.8 meq/L
  DBIL: 0 mg/dL
  GLC: 187.8 mg/dL
  IP: 7.7 mg/dL
  K: 4.6 meq/L
  LDH: 93.4 IU/L
  Na: 138.4 meq/L
  PL: 162 mg/dL
  RALB: 4 g/dL
  TBIL: 0.2 mg/dL
  TC: 74.6 mg/dL
  TG: 132 mg/dL
  TP: 6.1 g/dL
  gamma-GTP: 1.4 IU/L
Time 14 day
  KIDNEY_L: 1.2 g
  KIDNEY_R: 1.2 g
  KIDNEY_TOTAL: 2.4 g
  LIVER: 13.3 g
  ALP: 747.6 IU/L
  ALT: 28.2 IU/L
  AST: 63.2 IU/L
  BUN: 20 mg/dL
  CRE: 0.5 mg/dL
  Ca: 11 mg/dL
  Cl: 106.4 meq/L
  DBIL: 0.01 mg/dL
  GLC: 178.4 mg/dL
  IP: 6.8 mg/dL
  K: 4.7 meq/L
  LDH: 89.6 IU/L
  Na: 137.8 meq/L
  PL: 144.8 mg/dL
  RALB: 4 g/dL
  TBIL: 0.3 mg/dL
  TC: 62.2 mg/dL
  TG: 144.2 mg/dL
  TP: 6.3 g/dL
  gamma-GTP: 1.8 IU/L
Time 28 day
  KIDNEY_L: 1.3 g
  KIDNEY_R: 1.2 g
  KIDNEY_TOTAL: 2.5 g
  LIVER: 14.9 g
  ALP: 579.4 IU/L
  ALT: 62.6 IU/L
  AST: 58.8 IU/L
  BUN: 20.8 mg/dL
  CRE: 0.6 mg/dL
  Ca: 10.9 mg/dL
  Cl: 107.6 meq/L
  DBIL: 0.054 mg/dL
  GLC: 178.6 mg/dL
  IP: 6.7 mg/dL
  K: 4.5 meq/L
  LDH: 76.2 IU/L
  Na: 139 meq/L
  PL: 145 mg/dL
  RALB: 4.1 g/dL
  TBIL: 0.2 mg/dL
  TC: 62.8 mg/dL
  TG: 187.4 mg/dL
  TP: 6.6 g/dL
  gamma-GTP: 1.4 IU/L
